Assay results reported in PubChem BioAssay AID330 (DTP/NCI, 2004).
Where “and” joins values, the source holds several entries; their conditions need not be identical. Identical values can stand only once. Toxic doses and inconclusive results are not listed.

System: P388 leukemia ip, CD2F1 mice, survival T/C
Experiment: NCI In Vivo Anticancer Drug Screen. Data for tumor model P388 Leukemia (intraperitoneal) in CD2F1 (CDF1) mice
Details: endpoint: median survival time, higher = longer survival
Method in brief: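 Mice carrying the transplanted tumor received test compound or vehicle. Survival was recorded in each group, and the value is the treated-group measurement divided by that of the vehicle-treated control group.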

[1] = dose: 50.0 mg/kg/injection, schedule: Q01DX009 (ip), vehicle: Klucel (hydroxypropylcellulose) (HPC)
[2] = dose: 100.0 mg/kg/injection, schedule: Q01DX009 (ip), vehicle: Klucel (hydroxypropylcellulose) (HPC)
[3] = dose: 200.0 mg/kg/injection, schedule: Q01DX009 (ip), vehicle: Klucel (hydroxypropylcellulose) (HPC)
[4] = dose: 50.0 mg/kg/injection, schedule: Q01DX009 (ip), vehicle: saline with Tween-80
[5] = dose: 100.0 mg/kg/injection, schedule: Q01DX009 (ip), vehicle: saline with Tween-80
[6] = dose: 200.0 mg/kg/injection, schedule: Q01DX009 (ip), vehicle: saline with Tween-80
[7] = dose: 25.0 mg/kg/injection, schedule: Q01DX009 (ip), vehicle: Klucel (hydroxypropylcellulose) (HPC)
[8] = dose: 400.0 mg/kg/injection, schedule: Q01DX009 (ip), vehicle: Klucel (hydroxypropylcellulose) (HPC)
[9] = dose: 12.5 mg/kg/injection, schedule: Q01DX009 (ip), vehicle: saline with Tween-80
[10] = dose: 25.0 mg/kg/injection, schedule: Q01DX009 (ip), vehicle: saline with Tween-80
[11] = dose: 25.0 mg/kg/injection, schedule: Q01DX005 (ip), vehicle: Klucel (hydroxypropylcellulose) (HPC)
[12] = dose: 50.0 mg/kg/injection, schedule: Q01DX005 (ip), vehicle: Klucel (hydroxypropylcellulose) (HPC)
[13] = dose: 100.0 mg/kg/injection, schedule: Q01DX005 (ip), vehicle: Klucel (hydroxypropylcellulose) (HPC)
[14] = dose: 200.0 mg/kg/injection, schedule: Q01DX005 (ip), vehicle: Klucel (hydroxypropylcellulose) (HPC)
[15] = dose: 60.0 mg/kg/injection, schedule: Q01DX005 (ip), vehicle: Klucel (hydroxypropylcellulose) (HPC)
[16] = dose: 120.0 mg/kg/injection, schedule: Q01DX005 (ip), vehicle: Klucel (hydroxypropylcellulose) (HPC)

Nc1ccccc1N1C(c2ccccc2)=CC(=O)N2CCN=C21
T/C [1]: 90 % of control | T/C [2]: 101 % of control | T/C [3]: 95 % of control

Nc1nc2c(C(=O)N3CCOCC3)nnn2c2ccccc12
T/C [4]: 100 % of control | T/C [5]: 92 % of control | T/C [6]: 96 % of control

CC12CCCCC1=CC(=O)CC2 (stereo not drawn)
T/C (dose: 12.5 mg/kg/injection, schedule: Q01DX009 (ip), vehicle: other): 97 % of control | T/C (dose: 25.0 mg/kg/injection, schedule: Q01DX009 (ip), vehicle: other): 100 % of control | T/C (dose: 25.0 mg/kg/injection, schedule: Q01DX009 (ip), vehicle: saline + Tween-80 + alcohol): 100 % of control | T/C (dose: 50.0 mg/kg/injection, schedule: Q01DX009 (ip), vehicle: other): 107 % of control | T/C (dose: 50.0 mg/kg/injection, schedule: Q01DX009 (ip), vehicle: saline + Tween-80 + alcohol): 100 % of control | T/C (dose: 100.0 mg/kg/injection, schedule: Q01DX009 (ip), vehicle: saline + Tween-80 + alcohol): 104 % of control and 114 % of control | T/C (dose: 200.0 mg/kg/injection, schedule: Q01DX009 (ip), vehicle: saline + Tween-80 + alcohol): 106 % of control

O=C(O)C1(NO)CCCCC1
T/C [7]: 105 % of control | T/C [1]: 107 % of control and 110 % of control and 115 % of control | T/C [4]: 107 % of control and 119 % of control | T/C [2]: 105 % of control and 108 % of control and 119 % of control | T/C [5]: 120 % of control and 123 % of control | T/C [3]: 111 % of control and 87 % of control | T/C [6]: 99 % of control and 119 % of control | T/C [8]: 110 % of control and 96 % of control | T/C (dose: 600.0 mg/kg/injection, schedule: Q01DX009 (ip), vehicle: Klucel (hydroxypropylcellulose) (HPC)): 101 % of control and 98 % of control

O=C(O)c1ccc([N+](=O)[O-])o1
T/C [7]: 99 % of control | T/C [1]: 89 % of control | T/C [2]: 96 % of control

CCCC(CCC)=NNC(=S)SC
T/C [9]: 95 % of control | T/C [10]: 95 % of control | T/C [4]: 106 % of control and 95 % of control

O=C1NC(c2cccc3ccccc23)Nc2ccc(Cl)cc21 (stereo not drawn)
T/C (dose: 12.5 mg/kg/injection, schedule: Q01DX009 (ip), vehicle: Klucel (hydroxypropylcellulose) (HPC)): 113 % of control | T/C [7]: 123 % of control | T/C [1]: 123 % of control

CCc1cc(Cc2cc(CC)cc(C(C)(C)C)c2O)c(O)c(C(C)(C)C)c1
T/C [2]: 107 % of control | T/C [3]: 90 % of control | T/C [8]: 104 % of control and 90 % of control

O=S(=O)(c1cccc(N=C=S)c1)c1cccc(N=C=S)c1
T/C (dose: 6.25 mg/kg/injection, schedule: Q01DX005 (ip), vehicle: Klucel (hydroxypropylcellulose) (HPC)): 123 % of control | T/C (dose: 12.5 mg/kg/injection, schedule: Q01DX005 (ip), vehicle: Klucel (hydroxypropylcellulose) (HPC)): 117 % of control and 123 % of control | T/C [11]: 123 % of control | T/C [12]: 103 % of control

Cc1nc2cc[nH]n2c(=O)c1CCc1ccccc1
T/C (dose: 60.0 mg/kg/injection, schedule: Q01DX005 (ip), vehicle: saline with Tween-80): 90 % of control | T/C (dose: 120.0 mg/kg/injection, schedule: Q01DX005 (ip), vehicle: saline with Tween-80): 88 % of control

CC(=O)Nc1ccc(C(O)C2=CC(=O)c3ccccc3C2=O)cc1 (stereo not drawn)
T/C (dose: 6.25 mg/kg/injection, schedule: Q01DX009 (ip), vehicle: saline): 97 % of control | T/C (dose: 12.5 mg/kg/injection, schedule: Q01DX009 (ip), vehicle: saline): 97 % of control | T/C (dose: 25.0 mg/kg/injection, schedule: Q01DX009 (ip), vehicle: saline): 86 % of control | T/C (dose: 25.0 mg/kg/injection, schedule: Q01DX009 (ip), vehicle: suspension in saline): 103 % of control | T/C (dose: 50.0 mg/kg/injection, schedule: Q01DX009 (ip), vehicle: suspension in saline): 114 % of control | T/C (dose: 100.0 mg/kg/injection, schedule: Q01DX009 (ip), vehicle: suspension in saline): 113 % of control

Cc1ccc(NC(=O)Oc2cc(C)c(C)cc2Cl)c([N+](=O)[O-])c1
T/C [4]: 107 % of control | T/C [5]: 104 % of control | T/C [6]: 112 % of control

COc1ccc(C2=NC(c3ccccc3)NC(c3ccccc3)/C2=C/c2ccccc2)cc1 (stereo not drawn)
T/C (dose: 6.25 mg/kg/injection, schedule: Q01DX009 (ip), vehicle: saline with Tween-80): 100 % of control | T/C [9]: 100 % of control | T/C [10]: 105 % of control | T/C [4]: 100 % of control

COc1c2c(c3c(c1OC)CCN(CC(c1ccccc1)c1ccccc1)C3)CCC2
T/C (dose: 100.0 mg/kg/injection, schedule: Q04DX002 (ip), vehicle: saline): 101 % of control | T/C (dose: 200.0 mg/kg/injection, schedule: Q04DX002 (ip), vehicle: saline): 100 % of control | T/C (dose: 400.0 mg/kg/injection, schedule: Q04DX002 (ip), vehicle: saline): 103 % of control

Clc1cccc2c(-c3ccccc3)c3cccc(Cl)c3cc12
T/C [4]: 101 % of control | T/C [5]: 97 % of control | T/C [6]: 96 % of control

Nc1c(I)cc(I)cc1C(=O)O
T/C [1]: 99 % of control and 101 % of control | T/C [2]: 101 % of control and 114 % of control

CC12CCC3(C)OCC(CO)(CO1)N23 (stereo not drawn)
T/C [4]: 91 % of control | T/C [5]: 90 % of control | T/C [6]: 91 % of control

Cc1nc(N)nc(N)c1-c1ccc(Cl)c(Cl)c1
T/C (dose: 1.0 mg/kg/injection, schedule: Q01DX009 (ip), vehicle: saline): 109 % of control | T/C (dose: 2.0 mg/kg/injection, schedule: Q01DX009 (ip), vehicle: saline): 123 % of control | T/C (dose: 3.0 mg/kg/injection, schedule: Q01DX009 (ip), vehicle: saline with Tween-80): 163 % of control | T/C (dose: 4.0 mg/kg/injection, schedule: Q01DX009 (ip), vehicle: saline): 98 % of control | T/C (dose: 4.0 mg/kg/injection, schedule: Q04DX002 (ip), vehicle: saline with Tween-80): 104 % of control | T/C (dose: 6.0 mg/kg/injection, schedule: Q01DX009 (ip), vehicle: saline with Tween-80): 86 % of control | T/C (dose: 6.0 mg/kg/injection, schedule: Q04DX002 (ip), vehicle: saline with Tween-80): 104 % of control | T/C (dose: 6.25 mg/kg/injection, schedule: Q04DX003 (ip), vehicle: saline with Tween-80): 120 % of control | T/C (dose: 8.0 mg/kg/injection, schedule: Q01DX009 (ip), vehicle: saline): 98 % of control | T/C (dose: 8.0 mg/kg/injection, schedule: Q04DX002 (ip), vehicle: saline with Tween-80): 99 % of control | T/C (dose: 10.0 mg/kg/injection, schedule: Q04DX002 (ip), vehicle: saline with Tween-80): 107 % of control | T/C (dose: 12.0 mg/kg/injection, schedule: Q04DX002 (ip), vehicle: saline with Tween-80): 123 % of control | T/C (dose: 20.0 mg/kg/injection, schedule: Q04DX002 (ip), vehicle: saline): 99 % of control | T/C (dose: 25.0 mg/kg/injection, schedule: Q04DX003 (ip), vehicle: saline with Tween-80): 155 % of control | T/C (dose: 30.0 mg/kg/injection, schedule: Q04DX002 (ip), vehicle: saline): 107 % of control | T/C (dose: 40.0 mg/kg/injection, schedule: Q04DX002 (ip), vehicle: saline): 119 % of control

Nc1cc(Cl)cc2c1-c1ccc(Cl)cc1C2=O
T/C [11]: 96 % of control | T/C [12]: 91 % of control | T/C [13]: 90 % of control | T/C [14]: 89 % of control

COc1ccc(C(=O)C(CCC(=O)/C=C/c2ccccc2)S(C)(=O)=O)cc1 (stereo not drawn)
T/C [12]: 105 % of control | T/C [13]: 99 % of control | T/C [14]: 87 % of control

COC(C(N)=O)(c1ccccc1)C(F)(F)F (stereo not drawn)
T/C [5]: 90 % of control | T/C [6]: 100 % of control | T/C (dose: 400.0 mg/kg/injection, schedule: Q01DX009 (ip), vehicle: saline with Tween-80): 90 % of control

c1ccc2c(c1)Cc1c-2n[nH]c1-c1[nH]nc2c1Cc1ccccc1-2
T/C [15]: 96 % of control | T/C [16]: 102 % of control | T/C (dose: 240.0 mg/kg/injection, schedule: Q01DX005 (ip), vehicle: Klucel (hydroxypropylcellulose) (HPC)): 96 % of control

Nc1c(C(=O)NCCc2ccccc2)c2nc3c(C(=O)NCCc4ccccc4)ccc(Br)c3oc-2c(Br)c1=O
T/C (dose: 50.0 mg/kg/injection, schedule: Q01DX005 (ip), vehicle: saline with Tween-80): 89 % of control | T/C (dose: 100.0 mg/kg/injection, schedule: Q01DX005 (ip), vehicle: saline with Tween-80): 94 % of control | T/C (dose: 200.0 mg/kg/injection, schedule: Q01DX005 (ip), vehicle: saline with Tween-80): 99 % of control

CC(=O)c1c(C)[nH]c2c1[nH]c1ccccc12
T/C [15]: 93 % of control | T/C [16]: 101 % of control
